Experiment [1] has as its system LM2 and MDA-MB-231 breast cancer cell lines. The experiment can be described thus: PAICS 2D cell proliferation assay (CellTiter-Glo viability, 72 h). Type of experiment: cell-based. Particulars: Homo sapiens; 72 h incubation; cell line not given.
Experiment [2] deals with wild type LM2 and CRISPR edited LM2. As to the kind of experiment: 2D cell proliferation assay, wild type LM2 versus PAICS CRISPR edited LM2. The format is cell-based, human. Particulars: LM2 cells, PAICS CRISPR edited vs wild type. Here is the method:
Cas9 nuclease-mediated gene editing (Sander and Joung, 2014) was performed using a CRISPR RNA guide sequence ([…], PAM: AGG) targeting exon 3 in the human PAICS gene (accession number: NM_006452).
Stable cell clones were isolated and gene disruption confirmed by DNA sequencing and the absence of PAICS cellular protein expression confirmed by Western blotting.
A small set of compounds were tested against wild type LM2 and CRISPR edited LM2 in the 2D cell proliferation assay to establish to what extent the cellular potency was driven by PAICS mediated effects. The data is shown in Table 2: compounds tested had no effect on CRISPR edited cells, confirming the on-targets effect as being PAICS mediated.

In the next experiment the target is WT full length PAICS (Homo sapiens (Human), UniProt P22234). The experiment can be described thus: Biochemical assay to measure PAICS activity (Transcreener ADP2 FI). The conditions noted are these: SAICAR synthetase reaction, ADP detection, 30 min pre-incubation.
A further experiment has as its system MDA-MB-231 Dlux cells. The experiment can be described thus: MDA-MB-231-Dlux xenograft model. Type of experiment: in vivo. Particulars: oral 25 mg/kg twice daily, 2 weeks, mammary fat pad implant, MF-1 nude mice. Here is the method: Evaluation of Compound 69 in MDA-MB-231-Dlux Xenograft Model
Mice were implanted with MDA-MB-231 Dlux cells in the mammary fat pad. Mice were treated with test agent, (Compound 69), standard of care control agent, docetaxel, or vehicle control, once tumours reached a mean volume of ˜100-200 mm^3. Tumours were measured every 2-3 days using electronic calipers and tumour volume estimated using the formula 0.5 (L×W^2). Treatment continued for 2 weeks. Mice were observed and body weight measured daily
MF-1 (HsdOla:MF1-Foxn1^nu)
MDA-MB-231 Dlux (Bioluminescent MDA-MD-231 variant)
Implantation Site: Mammary fat pad (1:1 matrgel/PBS)
Compound 69 (Oral 25 mg/kg twice daily)
Docetaxel (IV 5 mg/kg twice weekly)

Sequence of WT full length PAICS (P22234 whole entry): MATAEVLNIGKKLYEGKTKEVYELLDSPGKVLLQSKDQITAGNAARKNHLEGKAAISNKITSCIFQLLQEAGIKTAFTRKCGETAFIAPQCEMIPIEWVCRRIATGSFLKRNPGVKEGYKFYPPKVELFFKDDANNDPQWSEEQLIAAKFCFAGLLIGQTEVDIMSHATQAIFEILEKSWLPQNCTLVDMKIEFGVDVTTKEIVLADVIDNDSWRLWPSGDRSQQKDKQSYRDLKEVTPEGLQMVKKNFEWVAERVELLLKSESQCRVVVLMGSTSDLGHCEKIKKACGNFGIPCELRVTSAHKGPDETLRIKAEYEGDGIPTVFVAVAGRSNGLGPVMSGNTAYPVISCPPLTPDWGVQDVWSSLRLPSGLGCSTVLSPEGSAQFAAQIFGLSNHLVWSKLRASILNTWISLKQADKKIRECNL

Turning to `CN(C)CCOC(=O)N1CCN(c2ccc(Br)c(NC(=O)c3coc(N)n3)c2)CC1` [Example 23, 2-(Dimethylamino)ethyl 4-(3-(2-aminooxazole-4-carboxamido)-4-bromophenyl)piperazine-1-carboxylate], the EC50 in experiment [1] lay in the range of 100 to 250 nM. The “Potency shift: CRISPR Cell EC50/WT Cell EC50” value (“Potency shift” for short) in experiment [2] was over 500. The same compound gave an IC50 on WT full length PAICS of 10 to 25 nM.
The matching figures for `CN(C)CCCOC(=O)N1CCN(c2ccc(Br)c(NC(=O)c3coc(N)n3)c2)CC1` [Example 24, 3-(Dimethylamino)propyl 4-(3-(2-aminooxazole-4-carboxamido)-4-bromophenyl)piperazine-1-carboxylate]: 100 to 250 nM, over 500 and 10 to 25 nM.
Take `CNCCS(=O)(=O)N1CCN(c2ccc(Br)c(NC(=O)c3coc(N)n3)c2)CC1` [Example 55, 2-Amino-N-[2-bromo-5-(4-{[2-(methylamino)ethyl]sulfonyl}piperazin-1-yl)phenyl]-1,3-oxazole-4-carboxamide]: the EC50 in experiment [1] is under 100 nM. Also, in experiment [2], the “Potency shift” value was over 500. Further, the IC50 at WT full length PAICS is under 10 nM.
Consider `CN(C)CCCS(=O)(=O)N1CCN(c2ccc(Br)c(NC(=O)c3coc(N)n3)c2)CC1` [Example 69, 2-Amino-N-(2-bromo-5-(4-(3-(dimethylamino)propylsulfonyl)piperazin-1-yl)phenyl)oxazole-4-carboxamide], for which the EC50 in experiment [1] is under 100 nM. Also, the “Potency shift” value in experiment [2] is over 500. In addition, the “growth of primary tumour” value with MDA-MB-231 Dlux cells was “statistically significant reduction in growth of primary tumour”. The IC50 on WT full length PAICS is under 10 nM.

In general, EC50 refers to the concentration at which the effect is half-maximal. Lower therefore signals higher potency in that assay. The IC50 is the concentration at which inhibition is half-maximal. A lower IC50 goes with inhibition by little substance.

Values taken from patent publication US10961233B2 (LIFEARC, priority 2016, dated 2021).
